Key:
[1] = tested on: Meloidogyne incognita; assay: Nematocidal action, infested compost soil, cucumber seeds (Example 8); type: in vivo; conditions: 30 days
Protocol: The products as 20% powder preparations were homogeneously admixed with a compost soil heavily infested by root gal nematodes. Without a waiting period, 20 cucumber seeds per concentration were seeded. After a cultivation time of 30 days at a temperature of 23°-25° C, the nematocidal action was evaluated by counting the root galls formed in the waterbath. The following table states the reduction of attack in percent. In the control, an average of 90 root galls per seedling had formed.

[2] = tested on: Rhizoctonia solani; assay: Limit concentration of soil-fungicidal effectiveness, Rhizoctonia solani, infested soil seeded with peas (Example 1); type: in vivo; conditions: soil, 480 h, 20 to 23 days, 22°-25° C, read-out: Limit concentration of the fungicidal effectiveness
Protocol: Limit concentrations of the soil-fungicidal effectiveness at homogeneous mixture of the products with the infested soil. Basic condition in the evaluation are a sound root formation without fungus necroses and germination of the seed of at least 90% compared with the result obtained in steamed soil. Per concentration there were seeded 25 grains of peas of the variety "Miracle of Kelvedon" (marrow pea) without a waiting period. The cultivation time in the tests was 20 to 23 days at a temperature of 22°-25° C. Four commercial products were included in the test series.
Rhizoctania solani: -- Steamed compost soil was inoculated with mycelium of Rhizoctonia solani.

[3] = tested on: Helminthosporium sativum; assay: Agar test (Example 7), Helminthosporium; type: cell-based; conditions: 10 ppm; 5 days at 22° C; control 100
Protocol: (§1) The fungicidal action of the agents according to the invention was tested in artificial nutrient media against plant-pathogenic fungi in Petri dishes (agar test). The procedure was to sterilize the medium consisting of 2% malt extract and 1.5% agar-agar powder. Before the solidification of the medium, the active substances were added to it, mixing thoroughly, so that the medium received 10 parts of active substance per million (ppm). After the solidification of the medium, the latter was inoculated with a platinum dropper which contained 100 spores each of the fungi to be tested, and after five days at 22° C, an evaluation was made by measuring the diameter of the colonies in mm.

[4] = tested on: Stemphylium ilicis; assay: Agar test (Example 7), Stemphylium; type: cell-based; conditions: 10 ppm; 5 days at 22° C; control 100
Protocol: as §1

[5] = tested on: Botrytis cinerea; assay: Agar test (Example 7), Botrytis; type: cell-based; conditions: 10 ppm; 5 days at 22° C; control 100
Protocol: as §1

[6] = tested on: Colletotrichum gloeosporioides; assay: Agar test (Example 7), Colletotrichum; type: cell-based; conditions: 10 ppm; 5 days at 22° C; control 100
Protocol: as §1

[7] = tested on: Fusarium oxysporum f. callistephi; assay: Fusarium infested compost soil, Callistephus chinesis seedlings (Example 5); type: in vivo; conditions: of 4 seedlings
Excerpt: Steamed compost soil was inoculated with a spore suspension of Fusarium oxysporum f. callistephi. After homogeneous mixture of the products with the infested soil, the products were present as 20% powder preparations, and after a waiting period of 8 days, there were set out per concentration 4 seedlings of Callistephus chinesis, master aster "Sun Ray" as host plants.

[8] = tested on: Rhizoctonia solani; assay: Rhizoctonia solani infested compost soil, marrow peas (Example 3); type: in vivo; conditions: for Weight of fresh plant: 3 weeks; for Number of sound peas after 3 wks.: of 25 grains
Excerpt: Steamed compost soil was inoculated with mycelium of Rhizoctonia solani. After homogeneous mixture of the products with the infested soil, the products were present in the form of 20% powder preparations, the seeding of 25 grains of marrow peas of the variety "Miracle of Kelvedon" per concentration was effected without waiting period in clay dishes holding 1 liter of soil. The table lists the number of germinated sound peas, the weight of the fresh plant, and a root evaluation after a cultivation period of three weeks at 22°-25° C.

[9] = tested on: Asperqilus niger; assay: Agar test (Example 7), Aspergillus; type: cell-based; conditions: 10 ppm; 5 days at 22° C; control 100
Protocol: as §1

[10] = tested on: Pythium ultimum; assay: Pythium ultimum infested compost soil, marrow peas (Example 2); type: in vivo; conditions: 200 mg active ingr. per liter of soil
Excerpt: Steamed compost soil was inoculated with mycelium of Pythium ultimum.

[11] = 50 mg active ingredient per liter of soil
[12] = 100 mg active ingredient per liter of soil
[13] = 10 mg active ingr. per liter of soil
[14] = 20 mg active ingr. per liter of soil
[15] = 30 mg active ingr. per liter of soil

CC[S+]([O-])c1nnc(C(Cl)Cl)s1 (stereo not shown) [Compound 4, 2-dichloromethyl-5-ethylsulfinyl-1,3,4-thiadiazole]
Nematocidal action in % (reduction of attack) ([1]; 40 mg per liter of soil): 96% | Nematocidal action in % (reduction of attack) ([1]; 60 mg per liter of soil): 99% | minimal effective concentration [2]: 20 µg/mL

CCC[S+]([O-])c1nnc(C(Cl)Cl)s1 (stereo not shown) [Compound 5, 2-dichloromethyl-5-propylsulfinyl-1,3,4-thiadiazole]
Nematocidal action in % (reduction of attack) ([1]; 40 mg per liter of soil): 90% | Nematocidal action in % (reduction of attack) ([1]; 60 mg per liter of soil): 98% | minimal effective concentration [2]: 20 µg/mL

CC[S+]([O-])c1nnc(C(Cl)(Cl)Cl)s1 (stereo not shown) [Compound 9, 2-trichloromethyl-5-ethylsulfinyl-1,3,4-thiadiazole]
diameter of the colonies [3]: 0 mm | diameter of the colonies [4]: 0 mm | diameter of the colonies [5]: 0 mm | diameter of the colonies [6]: 0 mm | Number of attacked plants after 3 weeks [7, 11]: 0 | Number of attacked plants after 3 weeks [7, 12]: 0 | minimal effective concentration [2]: 10 µg/mL | Weight of fresh plant [8, 13]: 18 g | Number of sound peas after 3 wks. [8, 13]: 22 | Weight of fresh plant [8, 14]: 16 g | Number of sound peas after 3 wks. [8, 14]: 22 | Weight of fresh plant [8, 15]: 17 g | Number of sound peas after 3 wks. [8, 15]: 23 | diameter of the colonies [9]: 0 mm

CCS(=O)(=O)c1nnc(C(Cl)Cl)s1 [Compound 18, 2-dichloromethyl-5-ethylsulfonyl-1,3,4-thiadiazole]
diameter of the colonies [3]: 0 mm | diameter of the colonies [4]: 0 mm | diameter of the colonies [5]: 13 mm | diameter of the colonies [6]: 41 mm | Nematocidal action in % (reduction of attack) ([1]; 40 mg per liter of soil): 61% | Nematocidal action in % (reduction of attack) ([1]; 60 mg per liter of soil): 90% | minimal effective concentration [2]: 100 µg/mL | diameter of the colonies [9]: 0 mm

CCCS(=O)(=O)c1nnc(C(Cl)Cl)s1 [Compound 19, 2-dichloromethyl-5-propylsulfonyl-1,3,4-thiadiazole]
diameter of the colonies [3]: 0 mm | diameter of the colonies [4]: 0 mm | diameter of the colonies [5]: 0 mm | diameter of the colonies [6]: 0 mm | Nematocidal action in % (reduction of attack) ([1]; 40 mg per liter of soil): 72% | Nematocidal action in % (reduction of attack) ([1]; 60 mg per liter of soil): 82% | Number of attacked plants after 3 weeks [7, 11]: 0 | Number of attacked plants after 3 weeks [7, 12]: 0 | minimal effective concentration [2]: 50 µg/mL | diameter of the colonies [9]: 0 mm

CCS(=O)(=O)c1nnc(C(Cl)(Cl)Cl)s1 [Compound 22, 2-trichloromethyl-5-ethylsulfonyl-1,3,4-thiadiazole]
diameter of the colonies [3]: 0 mm | diameter of the colonies [4]: 0 mm | diameter of the colonies [5]: 0 mm | diameter of the colonies [6]: 0 mm | Number of attacked plants after 3 weeks [7, 11]: 0 | Number of attacked plants after 3 weeks [7, 12]: 0 | minimal effective concentration [2]: 50 µg/mL | diameter of the colonies [9]: 0 mm

CCCS(=O)(=O)c1nnc(C(Cl)(Cl)Cl)s1 [Compound 23, 2-trichloromethyl-5-propylsulfonyl-1,3,4-thiadiazole]
diameter of the colonies [3]: 0 mm | diameter of the colonies [4]: 0 mm | diameter of the colonies [5]: 0 mm | diameter of the colonies [6]: 0 mm | minimal effective concentration [2]: 30 µg/mL | Weight of fresh plant [8, 13]: 9 g | Number of sound peas after 3 wks. [8, 13]: 13 | Weight of fresh plant [8, 14]: 17 g | Number of sound peas after 3 wks. [8, 14]: 21 | Weight of fresh plant [8, 15]: 20 g | Number of sound peas after 3 wks. [8, 15]: 24 | diameter of the colonies [9]: 0 mm

CC(C)S(=O)(=O)c1nnc(C(Cl)(Cl)Cl)s1 [Compound 24, 2-trichloromethyl-5-isopropylsulfonyl-1,3,4-thiadiazole]
diameter of the colonies [3]: 0 mm | diameter of the colonies [4]: 0 mm | diameter of the colonies [5]: 0 mm | diameter of the colonies [6]: 0 mm | minimal effective concentration [2]: 30 µg/mL | diameter of the colonies [9]: 0 mm

CCCCS(=O)(=O)c1nnc(C(Cl)(Cl)Cl)s1 [Compound 25, 2-trichloromethyl-5-butylsulfonyl-1,3,4-thiadiazole]
diameter of the colonies [3]: 0 mm | diameter of the colonies [4]: 0 mm | diameter of the colonies [5]: 0 mm | diameter of the colonies [6]: 0 mm | Number of attacked plants after 3 weeks [7, 11]: 0 | Number of attacked plants after 3 weeks [7, 12]: 0 | minimal effective concentration [2]: 25 µg/mL | diameter of the colonies [9]: 0 mm

CCCCCS(=O)(=O)c1nnc(C(Cl)(Cl)Cl)s1 [Compound 26, 2-trichloromethyl-5-amylsulfonyl-1,3,4-thiadiazole]
diameter of the colonies [3]: 0 mm | diameter of the colonies [4]: 0 mm | diameter of the colonies [5]: 0 mm | diameter of the colonies [6]: 0 mm | minimal effective concentration [2]: 25 µg/mL | diameter of the colonies [9]: 0 mm

CCCCCCS(=O)(=O)c1nnc(C(Cl)(Cl)Cl)s1 [Compound 27, 2-trichloromethyl-5-hexylsulfonyl-1,3,4-thiadiazole]
diameter of the colonies [3]: 0 mm | diameter of the colonies [4]: 0 mm | diameter of the colonies [5]: 0 mm | diameter of the colonies [6]: 0 mm | minimal effective concentration [2]: 25 µg/mL | diameter of the colonies [9]: 0 mm

CCCCCCCS(=O)(=O)c1nnc(C(Cl)(Cl)Cl)s1 [Compound 28, 2-trichloromethyl-5-heptylsulfonyl-1,3,4-thiadiazole]
diameter of the colonies [3]: 0 mm | diameter of the colonies [4]: 0 mm | diameter of the colonies [5]: 0 mm | diameter of the colonies [6]: 0 mm | minimal effective concentration [2]: 200 µg/mL | diameter of the colonies [9]: 0 mm

CCCCCCCCS(=O)(=O)c1nnc(C(Cl)(Cl)Cl)s1 [Compound 29, 2-trichloromethyl-5-octylsulfonyl-1,3,4-thiadiazole]
diameter of the colonies [3]: 0 mm | diameter of the colonies [4]: 0 mm | diameter of the colonies [5]: 18 mm | diameter of the colonies [6]: 0 mm | minimal effective concentration [2]: > 200 µg/mL | diameter of the colonies [9]: 19 mm

CS(=O)(=O)c1nnc(C(Br)Br)s1 [Compound 32, 2-dibromomethyl-5-methylsulfonyl-1,3,4-thiadiazole]
diameter of the colonies [3]: 0 mm | diameter of the colonies [4]: 0 mm | diameter of the colonies [5]: 0 mm | diameter of the colonies [6]: 0 mm | minimal effective concentration [2]: 50 µg/mL | diameter of the colonies [9]: 0 mm

S=C([S-])NCCNC(=S)[S-].[Zn+2] [Zinc ethylene-bis-dithiocarbamate, zinc-ethylene-bis-dithiocarbamate, reference compound]
diameter of the colonies [3]: 50 mm | diameter of the colonies [4]: 55 mm | diameter of the colonies [5]: 36 mm | Weight of fresh plant ([10]; 3 weeks): 7 g | Number of sound peas after 3 wks. ([10]; of 25 grains): 14 | diameter of the colonies [6]: 81 mm | diameter of the colonies [9]: 78 mm
